Test results as given in PMC5218480 (PLoS ONE, 2017).

Test system: MV-4-11 cells
Assay: Gene expression microarray analysis (Affymetrix PrimeView) and GSEA
Type: cell-based, human
Set-up: RFU PODN (11730768_x_at) / Fold change /veh PODN (11730768_x_at) / RFU LINC00158 (11744669_a_at) / Fold change /veh LINC00158 (11744669_a_at) / RFU DUSP10 (11751237_a_at) / Fold change /veh DUSP10 (11751237_a_at) / RFU ID3 (11757404_x_at) / Fold change /veh ID3 (11757404_x_at) / RFU PLEKHG5 (11737974_s_at) / Fold change /veh PLEKHG5 (11737974_s_at) / RFU LRRC4B (11730491_at) / Fold change /veh LRRC4B (11730491_at) / RFU GIMAP4 (11747438_a_at) / Fold change /veh GIMAP4 (11747438_a_at) / RFU KRT8 (11758183_x_at) / Fold change /veh KRT8 (11758183_x_at) / RFU CNN1 (11734310_a_at) / Fold change /veh CNN1 (11734310_a_at) / RFU VPS37D (11726825_at) / Fold change /veh VPS37D (11726825_at) / RFU C10orf10 (11716522_x_at) / Fold change /veh C10orf10 (11716522_x_at) / RFU KIR2DL2 /// KIR2DL4 /// KIR2DL5A /// KIR2DL5B /// KIR2DS1 /// KIR2DS2 /// KIR2DS3 /// KIR2DS4 /// KIR3DL3 /// KIR3DL3 /// KIR3DS1 (11738374_at) / Fold change /veh KIR2DL2 /// KIR2DL4 /// KIR2DL5A /// KIR2DL5B /// KIR2DS1 /// KIR2DS2 /// KIR2DS3 /// KIR2DS4 /// KIR3DL3 /// KIR3DL3 /// KIR3DS1 (11738374_at) / RFU C1QL1 (11718748_at) / Fold change /veh C1QL1 (11718748_at) / RFU TMPRSS4 (11747572_a_at) / Fold change /veh TMPRSS4 (11747572_a_at) / RFU HAMP (11756126_x_at) / Fold change /veh HAMP (11756126_x_at) / RFU RNFT2 (11725882_a_at) / Fold change /veh RNFT2 (11725882_a_at) / RFU NR4A2 (11747474_a_at) / Fold change /veh NR4A2 (11747474_a_at) / RFU ABCC12 (11746883_a_at) / Fold change /veh ABCC12 (11746883_a_at) / RFU TMEM136 (11760407_x_at) / Fold change /veh TMEM136 (11760407_x_at) / RFU CLDN22 /// WWC2 (11732394_at) / Fold change /veh CLDN22 /// WWC2 (11732394_at) / RFU HLA-DPB1 (11760878_x_at) / Fold change /veh HLA-DPB1 (11760878_x_at) / RFU SPINT1 (11716480_a_at) / Fold change /veh SPINT1 (11716480_a_at) / RFU GAP43 (11754022_s_at) / Fold change /veh GAP43 (11754022_s_at) / RFU A4GNT (11735810_at) / Fold change /veh A4GNT (11735810_at) / RFU PRB3 (11715151_x_at) / Fold change /veh PRB3 (11715151_x_at) / RFU TUBB4B (11761932_at) / Fold change /veh TUBB4B (11761932_at) / RFU CAPN14 (11732068_a_at) / Fold change /veh CAPN14 (11732068_a_at) / RFU TMCC2 (11721928_a_at) / Fold change /veh TMCC2 (11721928_a_at) / RFU IRGQ (11745062_a_at) / Fold change /veh IRGQ (11745062_a_at) / RFU FAM174B (11720279_a_at) / Fold change /veh FAM174B (11720279_a_at) / RFU TMPRSS4 (11748680_a_at) / Fold change /veh TMPRSS4 (11748680_a_at) / RFU FAM212B (11763350_a_at) / Fold change /veh FAM212B (11763350_a_at) / RFU PLEKHG5 (11743358_a_at) / Fold change /veh PLEKHG5 (11743358_a_at) / RFU ZSCAN30 (11745921_a_at) / Fold change /veh ZSCAN30 (11745921_a_at) / RFU CMKLR1 (11741424_a_at) / Fold change /veh CMKLR1 (11741424_a_at) / RFU LOC101060620 /// MAPK8IP1 (11723275_at) / Fold change /veh LOC101060620 /// MAPK8IP1 (11723275_at) / RFU SPTSSB (11747773_x_at) / Fold change /veh SPTSSB (11747773_x_at) / RFU PRSS12 (11739890_at) / Fold change /veh PRSS12 (11739890_at) / RFU BIN1 (11741810_x_at) / Fold change /veh BIN1 (11741810_x_at) / RFU WNT11 (11732464_a_at) / Fold change /veh WNT11 (11732464_a_at) / RFU C10orf10 (11716521_a_at) / Fold change /veh C10orf10 (11716521_a_at) / RFU C5orf56 (11738089_at) / Fold change /veh C5orf56 (11738089_at) / RFU CYB561 (11721691_x_at) / Fold change /veh CYB561 (11721691_x_at) / RFU ANKRD19P (11752326_a_at) / Fold change /veh ANKRD19P (11752326_a_at) / RFU OR2T12 /// OR2T33 /// OR2T8 (11738714_s_at) / Fold change /veh OR2T12 /// OR2T33 /// OR2T8 (11738714_s_at) / RFU VCAN (11748164_a_at) / Fold change /veh VCAN (11748164_a_at) / RFU JSRP1 (11732532_at) / Fold change /veh JSRP1 (11732532_at) / RFU KRTAP10-11 (11738290_x_at) / Fold change /veh KRTAP10-11 (11738290_x_at) / RFU MYO3A (11730013_a_at) / Fold change /veh MYO3A (11730013_a_at) / RFU EBF3 (11725865_a_at) / Fold change /veh EBF3 (11725865_a_at) / RFU CAMK2N1 (11719241_x_at) / Fold change /veh CAMK2N1 (11719241_x_at) / RFU C5orf56 (11738088_a_at) / Fold change /veh C5orf56 (11738088_a_at) / RFU OLFML3 (11715873_a_at) / Fold change /veh OLFML3 (11715873_a_at) / RFU LOC100653217 /// NTM (11731650_a_at) / Fold change /veh LOC100653217 /// NTM (11731650_a_at) / RFU MAPK11 (11762145_a_at) / Fold change /veh MAPK11 (11762145_a_at) / RFU FIZ1 (11724087_x_at) / Fold change /veh FIZ1 (11724087_x_at) / RFU OASL (11726364_x_at) / Fold change /veh OASL (11726364_x_at) / RFU SOX15 (11748057_x_at) / Fold change /veh SOX15 (11748057_x_at) / RFU CD79A (11719716_a_at) / Fold change /veh CD79A (11719716_a_at) / RFU HIST1H1D (11736915_at) / Fold change /veh HIST1H1D (11736915_at) / RFU CASKIN2 (11723855_a_at) / Fold change /veh CASKIN2 (11723855_a_at) / RFU LOC730098 (11760151_x_at) / Fold change /veh LOC730098 (11760151_x_at) / RFU OR4N2 (11742367_at) / Fold change /veh OR4N2 (11742367_at) / RFU PRRT2 (11749266_a_at) / Fold change /veh PRRT2 (11749266_a_at) / RFU SNX32 (11753110_a_at) / Fold change /veh SNX32 (11753110_a_at) / RFU CDHR5 (11726645_a_at) / Fold change /veh CDHR5 (11726645_a_at) / RFU RCAN1 (11760418_a_at) / Fold change /veh RCAN1 (11760418_a_at) / RFU FAM167A (11723789_a_at) / Fold change /veh FAM167A (11723789_a_at) / RFU FAM26E (11764081_at) / Fold change /veh FAM26E (11764081_at) / RFU ISYNA1 (11749810_s_at) / Fold change /veh ISYNA1 (11749810_s_at) / RFU ACY1 (11761880_at) / Fold change /veh ACY1 (11761880_at) / RFU 11764098_at / Fold change /veh 11764098_at / RFU SAMD14 (11745864_x_at) / Fold change /veh SAMD14 (11745864_x_at) / RFU NPB (11741838_a_at) / Fold change /veh NPB (11741838_a_at) / RFU TMPRSS6 (11731388_a_at) / Fold change /veh TMPRSS6 (11731388_a_at) / RFU KRTAP10-2 (11738614_at) / Fold change /veh KRTAP10-2 (11738614_at) / RFU ARHGAP8 /// PRR5-ARHGAP8 (11727945_x_at) / Fold change /veh ARHGAP8 /// PRR5-ARHGAP8 (11727945_x_at) / RFU KRTAP5-7 /// NADSYN1 (11734609_at) / Fold change /veh KRTAP5-7 /// NADSYN1 (11734609_at) / RFU RASL12 (11751679_a_at) / Fold change /veh RASL12 (11751679_a_at) / RFU CDKN2B (11736163_a_at) / Fold change /veh CDKN2B (11736163_a_at) / RFU PRF1 (11729649_at) / Fold change /veh PRF1 (11729649_at) / RFU, ZNF638 /// ZNF638-IT1 / Fold change vs veh, ZNF638 /// ZNF638-IT1 / RFU, PANK3 / Fold change vs veh, PANK3 / RFU, SH3YL1 / Fold change vs veh, SH3YL1 / RFU, ZEB2 / Fold change vs veh, ZEB2 / RFU, NRIP1 / Fold change vs veh, NRIP1 / RFU, PTTG1IP / Fold change vs veh, PTTG1IP / RFU, CAPN2 / Fold change vs veh, CAPN2 / RFU, MED14 / Fold change vs veh, MED14 / RFU, SNORA58 / Fold change vs veh, SNORA58 / RFU, C1orf63 / Fold change vs veh, C1orf63 / RFU, LRRFIP1 / Fold change vs veh, LRRFIP1 / RFU, NDUFAF7 / Fold change vs veh, NDUFAF7 / RFU, SLC12A2 / Fold change vs veh, SLC12A2 / RFU, IBTK / Fold change vs veh, IBTK / RFU, ESF1 / Fold change vs veh, ESF1 / Fold change vs veh, TMEM50B / RFU, TAOK1 / Fold change vs veh, TAOK1 / RFU, ACBD3 / Fold change vs veh, ACBD3 / RFU, TMA16 / Fold change vs veh, TMA16 / RFU, RWDD3 / Fold change vs veh, RWDD3 / RFU, BCAT1 / Fold change vs veh, BCAT1 / RFU, EDEM3 / Fold change vs veh, EDEM3 / RFU, TMEM33 / Fold change vs veh, TMEM33 / RFU, WDR75 / Fold change vs veh, WDR75 / RFU, AHCTF1 / Fold change vs veh, AHCTF1 / RFU, TFRC / Fold change vs veh, TFRC / RFU, ZDHHC17 / Fold change vs veh, ZDHHC17 / RFU, NOM1 / Fold change vs veh, NOM1 / RFU, ARL8B / Fold change vs veh, ARL8B / RFU, ZBTB11 / Fold change vs veh, ZBTB11 / RFU, TAMM41 / Fold change vs veh, TAMM41 / RFU, KIAA1704 /// LOC100996395 / Fold change vs veh, KIAA1704 /// LOC100996395 / RFU, ING1 / Fold change vs veh, ING1 / RFU, TRMT61B / Fold change vs veh, TRMT61B / RFU, FUBP3 / Fold change vs veh, FUBP3 / RFU, TP53 / Fold change vs veh, TP53 / RFU, TNKS2 / Fold change vs veh, TNKS2 / RFU, ZFP14 / Fold change vs veh, ZFP14 / RFU, ACTR2 / Fold change vs veh, ACTR2 / RFU, PPP3R1 / Fold change vs veh, PPP3R1 / RFU, PIK3R1 / Fold change vs veh, PIK3R1 / RFU, HNRNPA1 / Fold change vs veh, HNRNPA1 / RFU, RNF170 / Fold change vs veh, RNF170 / RFU, ZNF28 / Fold change vs veh, ZNF28 / RFU, RNGTT / Fold change vs veh, RNGTT / RFU, OGT / Fold change vs veh, OGT / RFU, BRD1 / Fold change vs veh, BRD1 / RFU, MARS / Fold change vs veh, MARS / RFU, ZNF655 / Fold change vs veh, ZNF655 / RFU, FAHD1 / Fold change vs veh, FAHD1 / RFU, BDP1 / Fold change vs veh, BDP1 / RFU, LRRCC1 / Fold change vs veh, LRRCC1 / RFU, ARID1A / Fold change vs veh, ARID1A / RFU, ZNF146 / Fold change vs veh, ZNF146 / RFU, ZNF330 / Fold change vs veh, ZNF330 / RFU, GPN3 / Fold change vs veh, GPN3 / RFU, C9orf123 / Fold change vs veh, C9orf123 / RFU, N4BP2L2 / Fold change vs veh, N4BP2L2 / RFU, ARFIP1 / Fold change vs veh, ARFIP1 / RFU, FAM179B / Fold change vs veh, FAM179B / RFU, BCL10 / Fold change vs veh, BCL10 / RFU, UHRF1BP1L / Fold change vs veh, UHRF1BP1L / RFU, BET1 / Fold change vs veh, BET1 / RFU, CNOT2 / Fold change vs veh, CNOT2 / RFU, ZNF268 / Fold change vs veh, ZNF268 / Fold change vs veh, ZNF507 / RFU, DGCR2 / Fold change vs veh, DGCR2 / RFU, WDSUB1 / Fold change vs veh, WDSUB1 / Fold change vs veh, HSP90B1 /// MIR3652 / RFU, ADSS / Fold change vs veh, ADSS / RFU, GK / Fold change vs veh, GK / RFU, ZNF148 / Fold change vs veh, ZNF148 / RFU, TAF9 / Fold change vs veh, TAF9 / RFU, SLC1A5 / Fold change vs veh, SLC1A5 / RFU, SLMO2 / Fold change vs veh, SLMO2 / RFU, ABCC4 / Fold change vs veh, ABCC4 / RFU, LOC101060439 /// RAP1B / Fold change vs veh, LOC101060439 /// RAP1B / RFU, RFX7 / Fold change vs veh, RFX7 / RFU, GTPBP10 / Fold change vs veh, GTPBP10 / RFU, CNEP1R1 / Fold change vs veh, CNEP1R1 / RFU, BIVM-ERCC5 /// ERCC5 / Fold change vs veh, BIVM-ERCC5 /// ERCC5 / RFU, ILF3 / Fold change vs veh, ILF3 / RFU 11762660_at / Fold change /veh 11762660_at / RFU VCAN (11757783_s_at) / Fold change /veh VCAN (11757783_s_at) / RFU DDX43 (11728927_at) / Fold change /veh DDX43 (11728927_at) / RFU KRT8 (11758188_x_at) / Fold change /veh KRT8 (11758188_x_at) / RFU NKD1 (11759106_at) / Fold change /veh NKD1 (11759106_at) / RFU SRD5A1 (11742802_a_at) / Fold change /veh SRD5A1 (11742802_a_at) / RFU TPSAB1 /// TPSB2 (11721975_s_at) / Fold change /veh TPSAB1 /// TPSB2 (11721975_s_at) / RFU GSTM3 (11746129_a_at) / Fold change /veh GSTM3 (11746129_a_at) / RFU IL23R (11737362_x_at) / Fold change /veh IL23R (11737362_x_at) / RFU TMEM51 (11727254_a_at) / Fold change /veh TMEM51 (11727254_a_at) / RFU PIWIL2 (11732686_x_at) / Fold change /veh PIWIL2 (11732686_x_at) / RFU ORM1 (11744905_x_at) / Fold change /veh ORM1 (11744905_x_at) / RFU CCDC152 (11743942_at) / Fold change /veh CCDC152 (11743942_at) / RFU ECM1 (11717891_a_at) / Fold change /veh ECM1 (11717891_a_at) / RFU IL23R (11748794_a_at) / Fold change /veh IL23R (11748794_a_at) / RFU TNFAIP8L3 (11732012_x_at) / Fold change /veh TNFAIP8L3 (11732012_x_at) / RFU MBOAT4 (11741988_at) / Fold change /veh MBOAT4 (11741988_at) / RFU 11764193_at / Fold change /veh 11764193_at / RFU TMEM53 (11763286_at) / Fold change /veh TMEM53 (11763286_at) / RFU MAGEB2 (11727129_at) / Fold change /veh MAGEB2 (11727129_at) / RFU TMEM200A (11744735_a_at) / Fold change /veh TMEM200A (11744735_a_at) / RFU CCDC152 (11751479_a_at) / Fold change /veh CCDC152 (11751479_a_at) / RFU FAM211A (11726209_a_at) / Fold change /veh FAM211A (11726209_a_at) / RFU RGS16 (11746705_a_at) / Fold change /veh RGS16 (11746705_a_at) / RFU VCAN (11755009_s_at) / Fold change /veh VCAN (11755009_s_at) / RFU RHOB (11743442_s_at) / Fold change /veh RHOB (11743442_s_at) / RFU RGS16 (11720943_a_at) / Fold change /veh RGS16 (11720943_a_at) / RFU RGS16 (11720944_at) / Fold change /veh RGS16 (11720944_at) / RFU, VPS4B / Fold change vs veh, VPS4B / RFU, CREB1 / Fold change vs veh, CREB1 / RFU, DNAJC13 / Fold change vs veh, DNAJC13 / RFU, GNAQ / Fold change vs veh, GNAQ / RFU, CDK5R1 / Fold change vs veh, CDK5R1 / RFU, ZRANB3 / Fold change vs veh, ZRANB3 / RFU, CUL4A / Fold change vs veh, CUL4A / RFU, CCNY / Fold change vs veh, CCNY / RFU, UFL1 / Fold change vs veh, UFL1 / RFU, COG3 / Fold change vs veh, COG3 / RFU, DIAPH2 / Fold change vs veh, DIAPH2 / RFU, SKA2 / Fold change vs veh, SKA2 / RFU, AFF3 / Fold change vs veh, AFF3 / RFU, LMF1 / Fold change vs veh, LMF1 / RFU, IPO11 / Fold change vs veh, IPO11 / RFU, DFFB / Fold change vs veh, DFFB / RFU, FOXP1 / Fold change vs veh, FOXP1 / RFU, CARD8 / Fold change vs veh, CARD8 / RFU, STRN3 / Fold change vs veh, STRN3 / RFU, ADK / Fold change vs veh, ADK / RFU, RASSF2 / Fold change vs veh, RASSF2 / RFU, WIPF1 / Fold change vs veh, WIPF1 / RFU, LARP1B / Fold change vs veh, LARP1B / RFU, RASA1 / Fold change vs veh, RASA1 / RFU, RB1 / Fold change vs veh, RB1 / RFU, PPFIA1 / Fold change vs veh, PPFIA1 / RFU, MAT2A / Fold change vs veh, MAT2A / RFU, CCT5 / Fold change vs veh, CCT5 / RFU, WDR92 / Fold change vs veh, WDR92 / RFU, CUX1 / Fold change vs veh, CUX1 / RFU, TTC7A / Fold change vs veh, TTC7A / RFU, TMEM135 / Fold change vs veh, TMEM135 / RFU, DEPTOR / Fold change vs veh, DEPTOR / RFU, CPM / Fold change vs veh, CPM / RFU, DNAJB6 / Fold change vs veh, DNAJB6 / RFU, CACNA2D3 / Fold change vs veh, CACNA2D3 / RFU, DTX4 / Fold change vs veh, DTX4 / RFU, TFCP2 / Fold change vs veh, TFCP2 / RFU, GMCL1 /// GMCL1P1 / Fold change vs veh, GMCL1 /// GMCL1P1 / RFU, AEBP2 / Fold change vs veh, AEBP2 / RFU, SNHG1 /// SNORD22 /// SNORD25 /// SNORD26 /// SNORD27 /// SNORD28 /// SNORD29 /// SNORD31 / Fold change vs veh, SNHG1 /// SNORD22 /// SNORD25 /// SNORD26 /// SNORD27 /// SNORD28 /// SNORD29 /// SNORD31 / Fold change (Aza/veh), C12orf56 (ProbeSet 11735607_a_at) / Fold change (ACY-1035/veh), C12orf56 (ProbeSet 11735607_a_at) / Fold change (Aza/veh), FGFR1OP (ProbeSet 11751329_s_at) / Fold change (ACY-1035/veh), FGFR1OP (ProbeSet 11751329_s_at) / Fold change (Aza/veh), VPS36 (ProbeSet 11739960_a_at) / Fold change (ACY-1035/veh), VPS36 (ProbeSet 11739960_a_at) / RFU SYPL1 (11715823_x_at) / Fold change /veh SYPL1 (11715823_x_at) / RFU IGFBP7 (11715501_s_at) / Fold change /veh IGFBP7 (11715501_s_at) / RFU REEP3 (11722064_at) / Fold change /veh REEP3 (11722064_at) / RFU IGLL1 (11728026_x_at) / Fold change /veh IGLL1 (11728026_x_at): dose or concentration left out as unconfirmed
Settings: ProbeSet 11732306_x_at; LIST D

Compound: Nc1ccc(-c2cccs2)cc1NC(=O)c1ccc2c(c1)cc(C1CC1)n2CCN1CCOCC1 [ACY-1035]
- RFU, CREB1: 287.35 RFU
